From PubChem BioAssay (NCI)
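Dose response: 5 concentrations. Exposure: 48 h. Format: 96-well plates. Endpoint: linear interpolation; highest concentration if not reached. GI50 marks 50% less growth. TGI: total growth inhibition.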

Legend:
Assay in all cases: DTP human tumour cell line panel, 48 h
[1] = tested on: BT-549 breast
[2] = tested on: SW-620 colon
[3] = tested on: IGROV1 ovarian
[4] = tested on: UACC-62 melanoma
[5] = tested on: OVCAR-5 ovarian
[6] = tested on: DU-145 prostate
[7] = tested on: 786-0 renal
[8] = tested on: ACHN renal
[9] = tested on: SK-OV-3 ovarian
[10] = tested on: M14 melanoma
[11] = tested on: HCC-2998 colon
[12] = tested on: EKVX NSCLC
[13] = tested on: SNB-19 CNS
[14] = tested on: HT29 colon
[15] = tested on: PC-3 prostate
[16] = tested on: MDA-MB-435
[17] = tested on: SF-295 CNS
[18] = tested on: SK-MEL-5 melanoma
[19] = tested on: SK-MEL-2 melanoma
[20] = tested on: TK-10 renal
[21] = tested on: SF-268 CNS
[22] = tested on: NCI-H460 lung
[23] = tested on: SF-539 CNS
[24] = tested on: RXF 393 renal
[25] = tested on: COLO 205 colon
[26] = tested on: K-562 leukemia
[27] = tested on: OVCAR-4 ovarian
[28] = tested on: NCI/ADR-RES ovarian
[29] = tested on: U251 CNS
[30] = tested on: T-47D breast
[31] = tested on: HL-60(TB) leukemia
[32] = tested on: UO-31 renal
[33] = tested on: A549 NSCLC
[34] = tested on: SN12C renal
[35] = tested on: SNB-75 CNS
[36] = tested on: HOP-62 NSCLC
[37] = tested on: SR leukemia
[38] = tested on: A498 renal
[39] = tested on: NCI-H23 lung
[40] = tested on: OVCAR-8 ovarian
[41] = tested on: SK-MEL-28 melanoma
[42] = tested on: HCT-15 colon
[43] = tested on: MALME-3M melanoma
[44] = tested on: MCF7 breast
[45] = tested on: CAKI-1 renal
[46] = tested on: MDA-MB-231 breast
[47] = tested on: NCI-H522 lung
[48] = tested on: MOLT-4 leukemia
[49] = tested on: LOX IMVI melanoma
[50] = tested on: HOP-92 NSCLC
[51] = tested on: CCRF-CEM leukemia
[52] = tested on: UACC-257 melanoma
[53] = tested on: HS 578T breast
[54] = tested on: NCI-H226 lung
[55] = tested on: KM12 colon
[56] = tested on: HCT-116 colon

CCn1c(SCC(=O)Nc2cccc(C(=O)/C=C/c3cc(OC)c(OC)c(OC)c3)c2)nc2ccccc2c1=O
GI50 [1]: 2.66 µM | TGI [1]: 9.31 µM | GI50 [2]: 2.48 µM | TGI [2]: 7.05 µM | GI50 [3]: 1.8 µM | TGI [3]: 4.31 µM | GI50 [4]: 4.43 µM | TGI [4]: 76.7 µM | GI50 [5]: 2.36 µM | TGI [5]: 5.65 µM | GI50 [6]: 2.36 µM | TGI [6]: 6.12 µM | GI50 [7]: 1.94 µM | TGI [7]: 3.92 µM | GI50 [8]: 2.29 µM | TGI [8]: 6.61 µM | GI50 [9]: 16.2 µM | TGI [9]: 76.3 µM | GI50 [10]: 2.9 µM | TGI [10]: > 100 µM | GI50 [11]: 2 µM | TGI [11]: 4.49 µM | GI50 [12]: 4.26 µM | TGI [12]: 56.7 µM | GI50 [13]: 3.89 µM | TGI [13]: > 100 µM | GI50 [14]: 2.07 µM | TGI [14]: 4.39 µM | GI50 [15]: 5.09 µM | TGI [15]: > 100 µM | GI50 [16]: 3.12 µM | TGI [16]: 48.2 µM | GI50 [17]: 4.1 µM | TGI [17]: 20.6 µM | GI50 [18]: 9.79 µM | TGI [18]: 32 µM | GI50 [19]: 3.3 µM | TGI [19]: 15.3 µM | GI50 [20]: 7.08 µM | TGI [20]: > 100 µM | GI50 [21]: 4.13 µM | TGI [21]: > 100 µM | GI50 [22]: 2.6 µM | TGI [22]: 11.7 µM | GI50 [23]: 2.3 µM | TGI [23]: 5.77 µM | GI50 [24]: 1.56 µM | TGI [24]: 7.82 µM | GI50 [25]: 3.91 µM | TGI [25]: 89.1 µM | GI50 [26]: 3.19 µM | TGI [26]: > 100 µM | GI50 [27]: 5.52 µM | TGI [27]: > 100 µM | GI50 [28]: 2.89 µM | TGI [28]: 15.4 µM | GI50 [29]: 2.35 µM | TGI [29]: 6.46 µM | GI50 [30]: 5.08 µM | TGI [30]: > 100 µM | GI50 [31]: 3.38 µM | TGI [31]: > 100 µM | GI50 [32]: 1.7 µM | TGI [32]: 6.42 µM | GI50 [33]: 3.05 µM | TGI [33]: 30.8 µM | GI50 [34]: 3.86 µM | TGI [34]: > 100 µM | GI50 [35]: 2.65 µM | TGI [35]: > 100 µM | GI50 [36]: 2.46 µM | TGI [36]: 6.78 µM | GI50 [37]: 1.29 µM | TGI [37]: > 100 µM | GI50 [38]: 2.15 µM | TGI [38]: 9.11 µM | GI50 [39]: 2.63 µM | TGI [39]: 8.58 µM | GI50 [40]: 3.16 µM | TGI [40]: > 100 µM | GI50 [41]: 3.66 µM | TGI [41]: > 100 µM | GI50 [42]: 2.27 µM | TGI [42]: 9.62 µM | GI50 [43]: 6.52 µM | TGI [43]: > 100 µM | GI50 [44]: 2.3 µM | TGI [44]: > 100 µM | GI50 [45]: 3.75 µM | TGI [45]: > 100 µM | GI50 [46]: 5.26 µM | TGI [46]: > 100 µM | GI50 [47]: 2.86 µM | TGI [47]: 9.29 µM | GI50 [48]: 3.55 µM | TGI [48]: > 100 µM | GI50 [49]: 1.18 µM | TGI [49]: 2.63 µM | GI50 [50]: 3.17 µM | TGI [50]: > 100 µM | GI50 [51]: 2.57 µM | TGI [51]: > 100 µM | GI50 [52]: 12.5 µM | TGI [52]: > 100 µM | GI50 [53]: 3.64 µM | TGI [53]: > 100 µM | GI50 [54]: 1.91 µM | TGI [54]: 5.55 µM | GI50 [55]: 1.89 µM | TGI [55]: 4.52 µM | GI50 [56]: 1.73 µM | TGI [56]: 3.75 µM
